EC50, IC50 and outcome data for 71 compounds are collected here from PubChem BioAssay AID179 (DTP/NCI, 2004).

In the experiment the test system is CEM cells HIV-1 protection, formazan growth assay. Kind of experiment: NCI AIDS Antiviral Assay. The conditions noted are these: for IC50: measured here: growth of uninfected CEM cells. An outline of the steps: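 Steps: treat uninfected and HIV-1-infected human CEM cells at five drug levels; quantify growth by soluble formazan; retest any compound reaching 50% protection; classify actives from the retest.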

Active and inactive are the calls of the source.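 The calls were made as follows: active = compounds giving half or more protection of infected cells from virus-caused growth loss, again on retest; inactive = the rest.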 Where a SMILES comes first, the peptide text is derived from it. [ ]: non-standard residue; d: D form. The star is where a group is joined. NMeF = CN[CH](Cc1ccccc1)C(=O)O; NMeV = CN[CH](C(=O)O)C(C)C; Boc = CC(C)(C)OC(=O)* A value given as a limit tells only on which side of the number the result lay.

With `S=C1NC2(CCCCCC2)NN1c1ccccc1`, the EC50 was greater than 100 µM and the IC50 came out at 30.9 µM.

Turning to `Clc1ccccc1-c1nn2c(CCCCCCCCc3nnc4sc(-c5ccccc5Cl)nn34)nnc2s1`, the EC50 is greater than 200 µM and the IC50 was determined as 105 µM.

On to `C=C(C)[C@@H]1CC[C@]2(COC(=O)CC(C)(C)CC(=O)O)CC[C@]3(C)[C@H](CC[C@@H]4[C@@]5(C)CC[C@H](OC(=O)CC(C)(C)CC(=O)O)C(C)(C)[C@@H]5CC[C@]43C)[C@@H]12`, for which the EC50 was greater than 200 µM and the IC50 stood at 7.08 µM.

In the case of `NC(=O)C(=O)N/N=C(\CC1(O)C(=O)Nc2ccccc21)c1ccc2ccccc2c1` (stereo not drawn), the EC50 was greater than 33.9 µM and the IC50 was greater than 33.9 µM.

With `Cc1cccc2c1C(=O)N(CC[P+](c1ccccc1)(c1ccccc1)c1ccccc1)C2=O`, the EC50 was greater than 200 µM and the IC50 is 7.94 µM.

With `CN(C)CCCN1C(=O)N(CCCN(C)C)c2c3cc(O)ccc3nc3c([N+](=O)[O-])ccc1c23`, the EC50 was greater than 200 µM and the IC50 is 0.977 µM.

As for `O/N=C1/C(=C/c2ccc(Cl)cc2)CCCC1C(NO)c1ccc(Cl)cc1` (stereo not drawn), the EC50 was greater than 13.5 µM and the IC50 is greater than 13.5 µM.

As for `CC(C)=CCOC(=O)C(C)=[N+]=[N-]`, the EC50 is greater than 200 µM and the IC50 worked out at 170 µM.

As for `C=C(C(N)=O)c1ccc([N+](=O)[O-])o1`, the EC50 is greater than 200 µM and the IC50 was found to be 3.47 µM.

On to `NNC(=O)c1ccncc1`, for which the EC50 is greater than 200 µM and the IC50 was greater than 200 µM.

Take `CN(c1ccccc1)S(=O)(=O)c1ccc([N+](=O)[O-])cc1`: the EC50 was greater than 200 µM and the IC50 was 110 µM.

Turning to `O=C(CSc1nnc(Cc2ccccc2)o1)Nc1cccc(Cl)c1`, the EC50 is greater than 100 µM and the IC50 was 49 µM.

On to `CC1CCCCC12NC(=O)NC2=O` (stereo not drawn), for which the EC50 is greater than 200 µM and the IC50 was greater than 200 µM.

For `CS(=O)(=O)NNS(=O)(=O)c1ccc(F)cc1`, the EC50 is greater than 251 µM and the IC50 is greater than 251 µM.

On to `CCC(=N\N=C(N)N)/C(CC)=N/N=C(N)N`, for which the EC50 is greater than 562 µM and the IC50 was greater than 562 µM.

Consider `NCCCNCCS`, for which the EC50 was greater than 589 µM and the IC50 worked out at 30.2 µM.

On to `O=C1c2c(O)cccc2Cc2cccc(O)c21`, for which the result was inactive.

`COc1ccc(/C=C2\N=C(C)OC2=O)cc1`: the EC50 was greater than 437 µM and the IC50 is greater than 437 µM.

As to `N/C(=N/N=C/c1cccc([N+](=O)[O-])c1)NO`, the result was inactive.

For `S=c1nn[nH]n1-c1ccccc1.[Cd]`, the EC50 was greater than 42.7 µM and the IC50 was determined as 32.4 µM.

For the compound `O=c1sc(-c2nc3ccccc3[nH]2)c(/N=C/c2ccccc2)n1-c1ccccc1`, the EC50 was greater than 2.63 µM and the IC50 was greater than 2.63 µM.

On to `COC(=O)N1CC2C3C4CC(C(c5ccccc5)=C4c4ccccc4)C3C21` (stereo not drawn), for which the EC50 is greater than 200 µM and the IC50 amounted to 29.5 µM.

For the compound `Cc1c(NC(=S)Nc2ccc([N+](=O)[O-])cc2)c(=O)n(-c2ccccc2)n1C`, the EC50 was greater than 200 µM and the IC50 is greater than 200 µM.

`Cc1ccn2c(c1)nc1nc3ccccc3nc12`: the EC50 was greater than 214 µM and the IC50 is 110 µM.

Turning to `COc1ccccc1NC(=S)Nc1ccccn1`, the EC50 was greater than 200 µM and the IC50 is greater than 200 µM.

For `C/C(CC(=O)Nc1ccccc1)=N\NC(N)=S`, the EC50 is greater than 1000 µM and the IC50 was 170 µM.

As to `Cc1ccc(S(=O)(=O)N/N=C\c2c3ccccc3[n+](C)c3ccccc23)cc1`, the outcome was inactive.

Consider `CCOC(=O)CCC(NC(=O)OCc1ccccc1)C(=O)NC(CCC(=O)OCC)C(=O)NC(CCC(=O)OCC)C(=O)NC(CCC(=O)OCC)C(=O)NC(CCC(=O)OCC)C(=O)NC(CCC(=O)OCC)C(=O)NC(CCC(=O)OCC)C(=O)NC(CCC(=O)OCC)C(=O)NC(CCC(=O)OCC)C(=O)NC(CCC(=O)OCC)C(=O)NC(CCC(=O)OCC)C(=O)NC(CCC(=O)OCC)C(=O)OCC` (stereo not drawn), for which the outcome was inactive.

As for `Nc1ccc2nc(NCc3ccc(F)cc3)cnc2c1`, the EC50 was greater than 933 µM and the IC50 is 83.2 µM.

Regarding `CCN(CC)C(=O)Oc1c(Br)ccc2cc(C)cc(OC)c12`, the EC50 was greater than 200 µM and the IC50 is greater than 200 µM.

`CC1=CC2=C(C(N)=O)C(=O)OC2(C)C(c2ccccc2)C1` (stereo not drawn): the EC50 was greater than 200 µM and the IC50 is greater than 200 µM.

Turning to `O=C1CCC2(c3ccccc3)Nc3ccc(Cl)cc3N12` (stereo not drawn), the outcome was inactive.

As for `Clc1ccc2c(c1)Oc1ccccc1C=N2`, the EC50 is greater than 363 µM and the IC50 came out at 6.31 µM.

On to `COc1cc2c(cc1OC)-c1cc3ccccc3c[n+]1CC2`, for which the EC50 is greater than 200 µM and the IC50 is greater than 200 µM.

For the compound `C=CC(C)(C)[C@@]12CC3C(=O)N[C@@H](CC(C)C)C(=O)N3[C@@H]1N(C(C)=O)c1ccccc12` (stereo partly drawn), the EC50 was greater than 30.2 µM and the IC50 is greater than 30.2 µM.

Take `CC(C)C(NC(=O)OC(C)(C)C)C(=O)N(C)C(Cc1ccccc1)C(=O)N(C)C(C(=O)O)C(C)C` (stereo not drawn) (Boc-Val-[NMeF]-[NMeV]-OH; configuration not given here): the EC50 is greater than 200 µM and the IC50 is greater than 200 µM.

For the compound `O=S(=O)(CC1=NC2C=CC=CC2N=C1)NCc1ccccc1` (stereo not drawn), the result was inactive.

`N#Cc1c2c(c(N)oc1=O)C(c1ccccc1)CC(=O)N2` (stereo not drawn): the EC50 was greater than 200 µM and the IC50 was greater than 200 µM.

On to `Cc1cc(=O)[nH]c(NN2C(Cl)C(=O)C2c2cccc(O)c2)n1` (stereo not drawn), for which the EC50 is greater than 295 µM and the IC50 is 1.86 µM.

Turning to `COc1ccc(C(=O)C(CN2CCOCC2)CN2CCOCC2)cc1`, the EC50 was greater than 200 µM and the IC50 stood at 1.32 µM.

With `C/C(=N\N=C(/[O-])c1ccncc1)c1cccc(/C(C)=N/N=C(\[O-])c2ccncc2)n1.O.[Cu+2]`, the EC50 was greater than 200 µM and the IC50 is 2.24 µM.

For `CCOC(=O)c1sc(SC)nc1NC(=O)c1ccccc1`, the EC50 is greater than 200 µM and the IC50 was greater than 200 µM.

As for `CCN(CC)c1ccc(N=Nc2ccc(-c3nc4cccnc4s3)cc2)cc1`, the EC50 was greater than 5.13 µM and the IC50 was greater than 5.13 µM.

Consider `COc1ccc(N2C(=O)C3c4[nH]c5c(C)cccc5c4C4CCC(C(C)(C)C)CC4C3C2=O)cc1` (stereo not drawn), for which the EC50 was greater than 200 µM and the IC50 is 7.94 µM.

With `Cc1cn(C2CC(OP(=O)(O)OCC3CCC(n4ccc(N)nc4=O)O3)C(CO)O2)c(=O)[nH]c1=O` (stereo not drawn), the half-maximal effective concentration (EC50) is 0.204 µM and the IC50 was 35.5 µM.

For the compound `Cc1nc2c(O)c3c(c(O)c2nc1C)C1C=CC3CC1`, the EC50 was greater than 200 µM and the IC50 is 1.95 µM.

As to `CC(C)(C)N=c1n(C(C)(C)C)oc(=O)n1C(C)(C)C`, the EC50 is greater than 151 µM and the IC50 turned out to be 135 µM.

On to `CC(=O)NNc1nc(C)c(C(=O)NNC(=O)C(=O)Nc2ccc(C)cc2[N+](=O)[O-])s1`, for which the EC50 was greater than 83.2 µM and the IC50 came out at 39.8 µM.

`COc1nn(C)c(=O)c2cccnc12`: the EC50 was greater than 1100 µM and the IC50 came out at 676 µM.

For the compound `CC[C@@H](C)C(=O)O[C@H]1[C@H](O)[C@H]2[C@@H](CN3C[C@@H](C)CC[C@H]3[C@@]2(C)O)[C@@H]2CC34O[C@]5(O)[C@@H](OC(=O)[C@@](C)(O)CC)CC[C@@]3(C)[C@@H]5[C@@H](OC(C)=O)[C@@H](OC(C)=O)[C@H]4[C@@]21O`, the EC50 was greater than 200 µM and the IC50 is greater than 200 µM.

As for `N/C(=N\N=C/c1c(O)cc(O)cc1O)NO`, the outcome was inactive.

`COc1ccc(/C=C(\C#N)C(=O)c2ccccc2)cc1`: the EC50 was greater than 97.7 µM and the IC50 came to 56.2 µM.

As to `COC(=O)c1cc2c(cc1CC(Cc1ccc3c(c1)CCCC3)C(=O)OC)CCCC2` (stereo not drawn), the EC50 was greater than 200 µM and the IC50 came out at 57.5 µM.

For `OC(CN(Cc1nc2ccccc2[nH]1)Cc1nc2ccccc2[nH]1)CN(Cc1nc2ccccc2[nH]1)Cc1nc2ccccc2[nH]1`, the EC50 was greater than 200 µM and the IC50 was 2.51 µM.

For `COc1c(NC(C)=O)cc(C)cc1NC(C)=O`, the result was inactive.

As to `CC(=O)OCC1C(=O)OCC1C(=O)N1Cc2cc3ccccc3nc2C1` (stereo not drawn), the EC50 is greater than 20 µM and the IC50 was 0.331 µM.

With `O=C1NNC2NC(=O)C3(NN2C1=O)c1ccccc1-c1ccccc13` (stereo not drawn), the EC50 was greater than 100 µM and the half-maximal inhibitory concentration (IC50) is greater than 100 µM.

As for `CC(NC(=O)C(N)CC(=O)O)NC(=O)N1CCCC1` (stereo not drawn), the EC50 is greater than 200 µM and the IC50 is greater than 200 µM.

Regarding `COc1ccc(/C=C(\Cl)c2ccc(OC)c(OC)c2)cc1OC`, the EC50 is 56.2 µM and the IC50 is greater than 200 µM.

Regarding `O=C(Cn1nc(Br)c(Br)c1Br)c1ccccc1`, the EC50 is greater than 200 µM and the IC50 came to 19.5 µM.

For the compound `[N-]=[N+]=Nc1c(Cl)c(Cl)nc2ccccc12`, the EC50 was greater than 200 µM and the IC50 is 61.7 µM.

`CN1C(NN)=NS(=O)(=O)c2ccccc21`: the EC50 is greater than 115 µM and the IC50 was determined as 95.5 µM.

Take `Cn1c(=O)oc2ccc(S(=O)(=O)Nc3ccc(Cl)cc3[N+](=O)[O-])cc21`: the EC50 is greater than 200 µM and the IC50 stood at 28.2 µM.

As for `COC(=O)c1c(C)cccc1C1CN=NC12Cc1ccc(C)c(C)c1C2=O` (stereo not drawn), the EC50 was greater than 200 µM and the half-maximal inhibitory concentration (IC50) was determined as 15.1 µM.

As to `O=C1OC(c2cccc(C(F)(F)F)c2)c2ccc3ccccc3c21` (stereo not drawn), the outcome was inactive.

On to `CCN(CCO)CC1COc2ccccc2O1` (stereo not drawn), for which the EC50 is greater than 200 µM and the IC50 is greater than 200 µM.

With `Cc1nn(C(=O)c2ccncc2)c2c1C(c1ccccc1)SC(N)=N2` (stereo not drawn), the EC50 is 28.2 µM and the IC50 was greater than 100 µM.

Regarding `CC(=O)NC(CC(C)C(C)=O)(C(=O)O)C(=O)O` (stereo not drawn), the EC50 was greater than 200 µM and the IC50 is greater than 200 µM.

For `Cc1ccc(-c2cssc2=S)cc1`, the EC50 is greater than 200 µM and the IC50 was greater than 200 µM.

In the case of `CC1=NOC2(C1)/C(=N/O)CCC/C2=N\O` (stereo not drawn), the EC50 was greater than 200 µM and the IC50 is greater than 200 µM.

`O=Cc1cn(CCCCCCCCCCCCn2cc(C=O)c3ccccc32)c2ccccc12`: the EC50 was greater than 200 µM and the IC50 is 1.2 µM.

As usually defined, the EC50 is the midpoint of the concentration-response curve. One may read the IC50 as the point on the concentration scale where inhibition reaches its midpoint. Lower therefore signals greater potency in that assay.
